# Source: patent US7078057B2, “Process for producing nanometer particles by fluid bed spray-drying” (priority 1999, dated 2006)
# Assay: Particle size by laser diffraction using photo correlation spectroscopy (Nicomp C370)
# Type: physicochemical
# Conditions: ganaxolone particles in spray-dried mixture with lactose (Example I)
# Procedure: For purposes of the present invention, particle size in the mixtures is determined by a laser diffraction technique using photo correlation spectroscopy (Nicomp C370). The results are reported in terms of volume-weighted mean diameter. Volume-weighted mean diameter is defined as follows: (Σnd^4)/(Σnd^3) where n=the number of particles in a size interval characterized by a diameter “d”. Remington's Pharmaceutical Sciences, 18th edition, Mack Publishing Company, Easton, Pa. (1990).
# Approximately 100 g of ganaxolone was dissolved in 5 kg of ethanol with slight warming to 30° C. The solution was sprayed into 1 kg of spray-dried lactose NF (Fast Flo #316) in a Vector FL-M-1 fluid bed system equipped with a 6″ Wurster column. The spray rate was 34–41 mL/min using one gun. The static inlet pressure was 2.5–8 bar (250–800 kPa) affording an air flow of 25–45 cfm. The inlet temperature was 85–90° C. and the product temperature was 27–48° C. The resulting ganaxolone powder mixture was free-flowing and contained 63 mg ganaxolone per g of powder. The ganaxolone particle size in the mixture was determined by a laser diffraction technique using photo correlation spectroscopy (Nicomp C370).
smiles,measurement,value
"CC(=O)[C@H]1CC[C@H]2[C@@H]3CC[C@H]4C[C@](C)(O)CC[C@]4(C)[C@H]3CC[C@]12C [ganaxolone, 3α-hydroxy-3β-methyl-5α-pregnan-20-one]",volume-weighted mean diameter,660 nm
